Results on 6 compounds are retold here after patent US12304909B2, “Compounds and their use in therapy” (IMPERIAL COLLEGE INNOVATIONS LIMITED, priority 2018, dated 2025).

The term EC50 denotes the concentration that produces a half-maximal response. The IC50 is the concentration at which inhibition is half-maximal. Low readings indicate inhibition by little substance, high ones a need for much substance.

One data set relates to LY 12318 cells. The data set is described as follows: CellTiter-Blue assay, LY 12318. The format is cell-based, human. To be noted: 72 h, read-out: LY12318 EC50. As to the method: (§1) Example NMT inhibitors of the present invention were tested for activity in in vitro CellTiter-Blue® assays using the human cell line MDA MB 231, LY 12318, or BL-41. Comparative Examples 1 and 2 were also tested in the same assays. Compounds having activity in inhibiting metabolic activity in the assay are expected to be useful as agents for preventing and/or treating cancer, by virtue of being inhibitors of human NMT1 and/or NMT2.
(§2) MDA MB 231 cells (obtained from Professor Eric Aboagye, Hammersmith Hospital; cell type: triple negative breast cancer) were grown in low glucose DMEM in 5% CO2 media (supplemented with 10% FBS); LY 12318 cells (obtained from Dr Martin Janz, Max Delbrueck Center; cell type: B cell lymphoma patient derived xenograft) were grown in DMEM media (supplemented with 10% FBS); and BL-41 cells (obtained from Cell Services at the Crick Institute; cell type: Burkitt's Lymphoma) were grown in RPMI-1640 media in 5% CO2 (supplemented with 10% FBS). The MDA MB 231 cells, LY 12318 cells or BL-41 cells were seeded in 96-well plates, 24 h prior to treatment. Cell suspensions were prepared by adjusting the cell density to the appropriate concentration (as stated in the Table 2 below) and 50 μL of the cell suspension was transferred to wells B-G in columns 2-11 of a 96-well plate.
(§3) Twenty-four hours later, 50 μl of growth media (low glucose DMEM in 5% CO2 media supplemented with 10% FBS for MDA MB 231 cells; DMEM media in 5% CO2 supplemented with 10% FBS for LY 12318 cells; or RPMI-1640 media supplemented with 10% FBS for BL-41 cells) containing 0.0004% DMSO (positive control), a mix of Puromycin and Staurosporine (negative controls, final concentration 2 μg/mL and 1 μM respectively) or different concentrations of each Example (Example 1 and 2) or each Comparative Example (Comparative Example 1 and 2) (dilution factor=3, starting at […], final concentration in the plate starting from 10 μM) were prepared and added to a well of the 96-well plate. The plate was incubated at 37° C. with 5% CO2 level.
(§4) 72 hours later, 20 μl/well CellTiter-Blue® (G8081, Promega) were added to the plates according to the manufacturer's protocol, the plate was incubated at 37° C. for 4 h for MDA MB 231 cells and BL-41 cells, or 3 h for LY 12318 cells, followed by measuring the absorbance per well at 570 nm using an EnVision plate reader. The negative control values were subtracted from every value. The metabolic activity was calculated as a percentage relative to the positive control. The EC50 values were calculated using GraphPad Prism.
On the technique in general: Resazurin is reduced to fluorescent resorufin, in cell work by metabolically active cells.

The subject of another data set is BL-41 cells. The data set is described as follows: CellTiter-Blue assay, BL-41. Type of data set: cell-based, human. As to the method: as §1, §2, §3, §4
The test system of another data set is MRC5 cells. As to the kind of experiment: Metabolic activity assay (MTS assay), MRC5. The format is cell-based, human. As to the method: Example NMT inhibitors of the present invention were tested for activity in an in vitro metabolic activity assay using the human cell line MRC5. Comparative Examples 1, 2, 3, 4, 5 and 6 were also tested in the same metabolic activity assay. Compounds having activity in inhibiting metabolic activity in the assay are expected to be useful as agents for preventing and/or treating cancer, by virtue of being inhibitors of human NMT1 and/or NMT2.
MRC5 cells (obtained from Dr David Mann's group, Imperial College; cell type: fibroblasts cells which derive from normal lung tissue) were grown in DMEM media (supplemented with 10% FBS) and were seeded in a 96-well plate, 24 h prior to treatment. Cell suspensions were prepared by adjusting the cell density to the appropriate concentration (as stated in the Table 1 below) and 50 μL of the cell suspension was transferred to wells B-G in columns 2-11 of a 96-well plate.
100 μL of growth media (DMEM media) containing 0.2% DMSO was added to wells B-G in columns 2 and 11 as positive controls, and 100 μl of growth media containing Puromycin (3 μg/mL; final concentration in the plate 2 μg/mL) was added to wells B-G in column 3 as a negative control. Seven concentrations of NMT inhibitor stock solution were prepared for each Example (Example 1 and 2) and each Comparative Example (Comparative Examples 1, 2, 3, 4, 5 and 6) tested (same final percentage of DMSO, dilution factor=3 starting from 15 μM or 150 μM). 100 μL of inhibitor stock solution was added to wells B-G in columns 4-10 of a 96-well plate (final concentration of Example compound or Comparative Example compound in the plate starting from 10 μM or 100 μM; total volume in each well was 150 μL). The plate was incubated at 37° C. with 5% CO2 level.
After 72 h, 20 μL MTS reagent (Promega, prepared according to the supplier protocol) was added to each well of the 96-well plate. The plate was incubated at 37° C. for 2 h and the absorbance per well was measured at 490 nm with an EnVision plate reader. The average absorbance value of the negative control (Puromycin-treated cells) was subtracted from each value and the metabolic activity was calculated as a percentage relative to the positive control (DMSO-treated cells). EC50 values were calculated using GraphPad.
Background: Tetrazolium assays rely on reduction of a dye to a coloured formazan, in cell work by metabolically active cells.

For a further data set, the target named is T1, human NMT1 (HsNMT1) (Homo sapiens, UniProt P30419).
T1 sequence (P30419 1-496): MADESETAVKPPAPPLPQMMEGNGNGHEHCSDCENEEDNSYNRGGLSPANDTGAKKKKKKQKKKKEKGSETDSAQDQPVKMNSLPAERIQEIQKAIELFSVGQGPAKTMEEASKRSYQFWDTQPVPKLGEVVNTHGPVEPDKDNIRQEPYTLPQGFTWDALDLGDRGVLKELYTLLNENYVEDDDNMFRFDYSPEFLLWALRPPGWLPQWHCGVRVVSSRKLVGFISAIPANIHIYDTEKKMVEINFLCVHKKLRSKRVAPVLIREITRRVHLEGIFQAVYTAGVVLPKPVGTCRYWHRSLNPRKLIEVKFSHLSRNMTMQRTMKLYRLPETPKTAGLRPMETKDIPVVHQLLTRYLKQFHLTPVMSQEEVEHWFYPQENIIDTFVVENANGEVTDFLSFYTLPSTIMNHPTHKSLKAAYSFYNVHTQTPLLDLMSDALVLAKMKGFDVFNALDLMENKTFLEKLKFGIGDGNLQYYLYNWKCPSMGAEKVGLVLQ
As to the kind of experiment: HsNMT1 IC50, fluorescence-based assay detecting CoA with CPM. The format is biochemical. As to the method: The IC50 values for human NMT1 (HsNMT1) of four Example compounds of the invention described above (Examples 1-4) and six comparative examples (Comparative Examples 1, 2, 3, 4, 5 and 6) were measured using a sensitive fluorescence-based assay based on detection of CoA by 7-diethylamino-3-(4-maleimido-phenyl)-4-methylcoumarin, as described in Goncalves, V., et al., Analytical Biochemistry, 2012, 421, 342-344 and Goncalves, V., et al., J. Med. Chem, 2012, 55, 3578.

A further data set has as its system MDA MB 231 cells. The data set is described as follows: CellTiter-Blue assay, MDA MB 231. The format is cell-based, human. On the procedure:
as §1, §2, §3, §4

A further data set in a line: Rat hepatocyte half life. The following applies: pooled cryopreserved rat hepatocytes, pH 7.4; pooled male Sprague-Dawley rat hepatocytes; read-out: Rat Hepatocyte t ½. Type of data set: in vitro ADME, Sprague-Dawley rats. As to the method:
Example Compound 1 was tested for metabolic stability in rat metabolic assays using hepatocytes derived from pooled male Sprague-Dawley rats. Comparative Examples 2, 3 and 4 were also tested in the same assay. Compounds having good metabolic stability in the assay are expected to be especially useful as agents for preventing and/or treating cancer, by having a long half-life in human patients.
Frozen pooled rat hepatocytes obtained from LifeTechnologies were thawed and purified according to the manufacturer's instructions. The test compound (4 mM) in DMSO was diluted with acetonitrile to provide a 100 μM sub-stock then further diluted with pH7.4 Krebs-Henseleit buffer supplemented with CaCl2), NaHCO3, HEPES, fructose and glycine) to provide a 2 μM working solution. 25 μL of working solution was incubated at 37° C., treated with 25 μL of rat hepatocyte suspension (containing 1×10^6 cells/mL) and incubated at 37° C. with 5% CO2 level at 95% relative humidity. Wells were incubated for an appropriate time (0, 15, 30, 45, 60 and 75 min) then quenched with 250 μL of acetonitrile containing reference standards diltiazem, 7-ethoxycoumarin and propranolol). The plates were shaken, sonicated for 5 min then cooled to 4° C. until all sampling was complete. All plates were centrifuged at 4000 rpm for 20 min to pellet the debris. 110 μl supernatant was diluted 110 μL water and quantitated using LC-MS/MS.
The results were used to calculate the % Remaining of the test compound at time point t=100×˜[(AUC at time point t)/(AUC at T=0)]. A linear regression curve was fitted to a plot of natural logarithm (In) of AUC against time. The T-half (min)=0.693/slope

Data set [1] is described as follows: Human liver microsomes half life. The following applies: pH 7.4, read-out: Human liver microsomes t ½. Type of data set: in vitro ADME. On the procedure: Example Compound 1 was tested for metabolic stability in an assay using human liver microsomes. Comparative Examples 2, 3, 4, 5 and 6 were also tested in the same assay. Compounds having good metabolic stability in the assay are expected to be especially useful as agents for preventing and/or treating cancer, by having a long half-life in human patients
Frozen human liver microsomes obtained from Corning, USA (cat #452117) were thawed and diluted with 100 mM of pH 7.4 phosphate buffer to give a 1 mg/ml solution. An NADPH regeneration system (NRS) was prepared as a solution containing 13 mM NADP, 33 mM glucose-6-phosphate, 33 mM MgCl2 and 4U/mL glucose-6-phosphate dehydrogenase in 100 mM of pH7.4 phosphate buffer. The test compound (4 mM) in DMSO was diluted with acetonitrile to provide a 100 μM sub-stock then further diluted with 100 mM of pH7.4 phosphate buffer to provide a 2 μM working solution. The liver microsome solution and NRS were incubated at 37° C. before use. To each well of the test plate was dispensed 60 μL of buffer, 50 μL of test compound solution and 10 μL of NRS. A reaction was initiated by addition of 40 μL of liver microsome solution. Wells were incubated for an appropriate time (0, 5, 10, 20, 30 and 60 min) then quenched with 300 μL of acetonitrile containing reference standards atenolol, propranolol, diclofenac, verapamil). All plates were centrifuged at 3500 rpm for 20 min at 15° C. to pellet the debris. 110 μL supernatant was diluted 110 μL water and quantitated using LC-MS/MS.
The results were used to calculate the % Remaining of the test compound at time point t=100×˜[(AUC at time point t)/(AUC at T=0)]. A linear regression curve was fitted to a plot of natural logarithm (In) of AUC against time. The T-half (min)=0.693/slope.
For orientation: Liver microsomes are a subcellular fraction often used to study metabolism.

Structures are written as SMILES. Values joined by “and” are separate entries in the source; they are usually repeats but may differ in a detail not shown here. Identical values can stand only once. Like-named read-outs stand apart in the source and are kept apart here.

For `Cc1c(CCOc2cc(F)ccc2-c2ccc3ncc(CCN)n3c2)c(C(=O)N(C)C)nn1C` [Comparative Example 1, 4-(2-{2-[3-(2-aminoethyl)imidazo[1,2-a]pyridin-6-yl]-5-fluorophenoxy}ethyl)-N,N,1,5-tetramethyl-1H-pyrazole-3-carboxamide], the EC50 came out at 246 nM with LY 12318 cells (Homo sapiens); 91 nM in the data set on BL-41 cells (Homo sapiens, BL-41, 72 h); 450 nM in the data set on MRC5 cells (Homo sapiens, MRC5, 72 h); 285 nM with MDA MB 231 cells (Homo sapiens, MDA-MB-231, 72 h). On human NMT1 (HsNMT1), this compound yielded an IC50 of 2 nM.

Consider `Cc1c(CCOc2cc(F)ccc2-c2ccc3ncc(CN(C)C)n3c2)c(C(=O)N(C)C)nn1C` [Comparative Example 4, 4-[2-(2-{3-[(dimethylamino)methyl]imidazo[1,2-a]pyridin-6-yl}-5-fluorophenoxy)ethyl]-N,N,1,5-tetramethyl-1H-pyrazole-3-carboxamide], for which the half-life at 1 µM in the data set “Rat hepatocyte half life” is 32 min. Moreover, the response in the data set on MRC5 cells (Homo sapiens, MRC5, 72 h) was half-maximal at 63 nM (EC50). The IC50 against human NMT1 (HsNMT1) was ~1 nM and 1 nM. Further, the half-life at 0.625 µM in data set [1] came to 12 min.

In turn, `Cc1nn(C)c(C)c1CCOc1c(F)cccc1-c1ccc2c(c1)c(CN(C)C)nn2C` [Comparative Example 6, 1-(5-(3-fluoro-2-(2-(1,3,5-trimethyl-1H-pyrazol-4-yl)ethoxy)phenyl)-1-methyl-1H-indazol-3-yl)-N,N-dimethylmethanamine] showed an EC50 in the data set on MRC5 cells (Homo sapiens, MRC5, 72 h) of 38 nM. Also, the half-life at 0.625 µM in data set [1] is 4 min.

Consider `Cc1c(CCOc2c(-c3ccc4ncc(CCN)n4c3)ccc(Cl)c2F)c(C(=O)N(C)C)nn1C` [Example Compound 3, 4-(2-{6-[3-(2-aminoethyl)imidazo[1,2-a]pyridin-6-yl]-3-chloro-2-fluorophenoxy}ethyl)-N,N,1,5-tetramethyl-1H-pyrazole-3-carboxamide], for which 4.2 nM corresponded to half-maximal inhibition at human NMT1 (HsNMT1) (IC50).

On to `CNC(=O)c1nn(C)c(C)c1CCOc1cc(Cl)ccc1-c1ccc2ncc(CCN)n2c1` [Example Compound 2, 4-(2-{2-[3-(2-aminoethyl)imidazo[1,2-a]pyridin-6-yl]-5-chlorophenoxy}ethyl)-N,1,5-trimethyl-1H-pyrazole-3-carboxamide], for which the EC50 in the data set with LY 12318 cells is 69 nM; in the data set with LY 12318 cells (Homo sapiens), less than 70 nM; in the data set with BL-41 cells (72 h), 24 nM; in the data set with MRC5 cells (72 h), 37 nM; in the data set with MRC5 cells (Homo sapiens, MRC5, 72 h), less than 40 nM; in the data set with MDA MB 231 cells (72 h), 45 nM. The same compound had a 50% effective concentration (EC50) with MDA MB 231 cells (Homo sapiens, MDA-MB-231, 72 h) of less than 70 nM.

As to `CNC(=O)c1nn(C)c(C)c1CCOc1c(-c2ccc3ncc(CCN)n3c2)ccc(Cl)c1F` [Example Compound 4, 4-(2-{6-[3-(2-aminoethyl)imidazo[1,2-a]pyridin-6-yl]-3-chloro-2-fluorophenoxy}ethyl)-N,1,5-trimethyl-1H-pyrazole-3-carboxamide], at human NMT1 (HsNMT1), inhibition was half-maximal at 6.3 nM (IC50).
